{"source": "patent US11725015B2", "about": "“Macrocyclic compound and uses thereof” (President and Fellows of Harvard College, priority 2017, dated 2023)", "key": {"[1]": {"system": "KPL-4 subcutaneous xenograft", "test": "Antitumor activity in KPL-4 subcutaneous xenograft model in combination with trastuzumab in mice", "format": "in vivo", "protocol": "A human HER-2 positive breast cancer cell line KPL-4, which had been cultured in an RPMI-1640 medium containing 10% FBS, and penicillin and streptomycin, was adjusted to a concentration of 1×10^8 cells/mL with Hank's Balanced Salt Solution to prepare a cell suspension. The cell suspension was inoculated in a volume of 100 μL into a subcutaneous part of a right flank of nude mice, 7 weeks of ages (CAnN.Cg-Foxnlnu/CrlCrlj, female, Charles River Laboratories Japan, Inc.).\nOn the basis of the volumes of tumors obtained on the first day of administration, the mice were grouped such that averages of the tumor volumes were substantially equal among the groups. The experiment was conducted on groups each consisting of 6 mice. Each test compound was dissolved in DMSO and a solution was stored at the freezer before use. Immediately before the administration, the stock solution was diluted in saline."}, "[2]": {"system": "TE-8 (human squamous cell carcinoma of the esophagus)", "test": "In vitro antiproliferative activity, TE-8", "format": "cell-based", "details": "TE-8, 72 hours", "protocol": "The in vitro antiproliferative assays for Compound (1) were conducted using a small panel of cancer cell lines including human squamous cell carcinoma of the esophagus (OE21, TE-8), human adenocarcinoma of the esophagus (OE33), and human uterine sarcoma (MES-SA, MES-SA-Dx5-Rx1). All cell lines were cultured in RPMI-1640 medium containing 10% FBS, and penicillin-streptomycin (culture medium), in a 5% CO2 incubator (37° C.). To each well of a 96 well plate (Becton, Dickinson and Company, 353219), 75 μL of cell suspension adjusted to a concentration of 4×10^4 cells/mL with the culture medium was added, and the cells were incubated overnight in a 5% CO2 incubator (37° C.). On the next day, 25 μL of Compound (1) in three-fold dilution series suspended in the culture medium was added to each well, and the resultant was incubated for 72 hours in a 5% CO2 incubator (37° C.). Then, cell viability was determined by CellTiter-Glo® Luminescent Cell Viability Assay (Promega) with 2013 EnVision™ Multilabel Reader (Perkin-Elmer, Wellesley, Mass.). Value of the wells containing cells without adding the test compounds was defined as 100% and the value of the wells containing no cells was defined as 0%. […] The P-gp susceptibility was calculated as the ratio of the IC50 value in MES-SA-Dx5-Rx1 cells, which overexpress P-gp, to the IC50 value in MES-SA cells."}, "[3]": {"system": "HT-1080 (human fibrosarcoma) xenograft", "test": "Antitumor effects in HT-1080 soft tissue sarcoma xenograft model in mice as monotherapy", "format": "in vivo", "details": "180 μg/kg intravenously on Day 1 and Day 8", "protocol": "A human fibrosarcoma cell line HT-1080, which had been cultured in an E-MEM containing 10% FBS, NEAA and antibiotics was adjusted to a concentration of 3×10^7 cells/mL with medium to prepare a cell suspension. The cell suspension was inoculated in a volume of 100 μL into a subcutaneous part of a right flank of athymic mice (CAnN.Cg-Foxnlnu/CrlCrlj, female, 6 weeks old, Charles River Japan Inc.). Six days after cell inoculation (Day 1), the length and the width of a tumor in each mouse were measured by using an electronic digital caliper (Mitutoyo Corporation), so as to calculate the volume of the tumor in accordance with the following calculation formula: Tumor volume (mm^3)=Longest diameter (mm)×Shortest diameter (mm)×Shortest diameter (mm)/2 Relative tumor volume (RTV)=Tumor volume (day X)/Tumor volume (the first day)\nOn the basis of TV, the mice were randomly grouped (Day 1). Each group was consisted in six mice. Compound (1) was dissolved in DMSO and a solution was stored in the freezer before use. Compound (1) (180 μg/kg) was diluted with saline and intravenously injected on Day 1 and Day 8."}, "[4]": {"system": "α-SMA-positive CAFs in the FaDu subcutaneous model", "test": "Effect on α-SMA-positive CAFs in the FaDu subcutaneous model in mice (Test Example 19)", "format": "in vivo", "protocol": "A human squamous cell carcinoma of the head and neck (SCCHN) cell line FaDu, which had been cultured in an RPMI-1640 medium containing 10% FBS, and penicillin-streptomycin (culture medium), was adjusted to a concentration of 5×10^7 cells/mL with culture medium to prepare a cell suspension. The cell suspension was inoculated in a volume of 100 μL into a subcutaneous part of a right flank of nude mice, 6 weeks of ages (CAnN.Cg-Foxnlnu/CrlCrlj, female, Charles River Laboratories Japan, Inc.). Ten days after cell inoculation, the mice were grouped such that averages of the tumor volumes were substantially equal among the groups. The experiment was conducted on groups each consisting of 5 mice. Each test compound was dissolved in DMSO and a solution was stored in the freezer before use. Immediately before the administration, the stock solution was diluted with saline. The test compound in saline was intravenously administered at 20 μg/kg, […]. Two days or 5 days after the single administration, tumor samples were collected and fixed with IHC Zinc Fixative (BD Pharmingen) at 4° C. for 24 hours. Paraffin-embedded tissues were sectioned (3 μm), mounted on positively charged slides, and air-dried. Sections were deparaffinized, conditioned and the antigens were retrieved using microwave with 1 mM EDTA at pH 6.0. Sections were blocked with 1% of BSA in TBS. Mouse anti-α-SMA monoclonal antibody conjugated with alkaline phosphatase (clone 1A4, Sigma) was applied at 5 μg/mL. Sections were incubated with the antibody for 2.5 hr. […] The area of α-SMA-positive region in the whole tumor was quantified by counting the α-SMA-positive objects using inform 2 software (PerkinElmer Inc.) Area of the tumor region was measured by assessing the hematoxylin-staining area using inform 2 software (PerkinElmer Inc.). […] A suppression rate of the α-SMA-positive area of the test compound-dosing group was calculated with the below formula: α-SMA ratio=α-SMA area of the test compound-dosing group/α-SMA area of the non-treat group"}}, "data": [{"smiles": "C=C1C[C@@H]2CC[C@@]34C[C@H]5O[C@H]6[C@@H](O3)[C@H]3O[C@H](CC[C@@H]3O[C@H]6C5O4)CC(=O)O[C@@H]3[C@@H](C)[C@@H]4O[C@@H]5C[C@]6(C[C@@H]7O[C@]8(C[C@H](C)[C@@H]9O[C@H](CN)[C@H](O)C[C@@H]9O8)C[C@H](C)[C@@H]7O6)O[C@@H]5C[C@@H]4O[C@H]3C[C@H]3O[C@@H](CC[C@@H]1O2)C[C@@H](C)C3=C", "note": "[Compound (1)]", "values": [{"measurement": "Tumor Regression (%)", "setting": "[1]; 0.09 mg/kg intravenously + trastuzumab 10 mg/kg", "result": 83, "unit": "%"}, {"measurement": "Tumor Regression (%)", "setting": "[1]; 0.09 mg/kg intravenously, without trastuzumab", "result": 43, "unit": "%"}, {"measurement": "Tumor Regression (%)", "setting": "[1]; 0.18 mg/kg intravenously + trastuzumab 10 mg/kg", "result": 100, "unit": "%"}, {"measurement": "Tumor Regression (%)", "setting": "[1]; 0.18 mg/kg intravenously, without trastuzumab", "result": 87, "unit": "%"}, {"measurement": "antiproliferative activity", "setting": "[2]", "result": "potent antiproliferative agent"}, {"measurement": "antitumor activity", "setting": "[3]", "result": "tumor regression"}, {"measurement": "α-SMA positive area", "setting": "[4]; single administration 180 μg/kg, Day 3", "result": "significantly reduced the α-SMA positive area"}, {"measurement": "α-SMA positive area", "setting": "[4]; single administration 180 μg/kg, Day 6", "result": "significantly reduced the α-SMA positive area"}, {"measurement": "α-SMA positive area", "setting": "[4]; single administration 60 m/kg, Day 3", "result": "significantly reduced the α-SMA positive area"}]}]}
